{"source": "patent US7999069B2", "about": "“EphB receptor-binding peptides” (Sanford-Burnham Medical Research Institute, priority 2005, dated 2011)", "key": {"EphB6": {"target": "T1, EphB6 (Homo sapiens, UniProt O15197)", "T1 construct": "Histidine-tagged EphB ectodomain Fc fusion proteins were incubated overnight", "T1 sequence (O15197 32-594 limits assumed)": "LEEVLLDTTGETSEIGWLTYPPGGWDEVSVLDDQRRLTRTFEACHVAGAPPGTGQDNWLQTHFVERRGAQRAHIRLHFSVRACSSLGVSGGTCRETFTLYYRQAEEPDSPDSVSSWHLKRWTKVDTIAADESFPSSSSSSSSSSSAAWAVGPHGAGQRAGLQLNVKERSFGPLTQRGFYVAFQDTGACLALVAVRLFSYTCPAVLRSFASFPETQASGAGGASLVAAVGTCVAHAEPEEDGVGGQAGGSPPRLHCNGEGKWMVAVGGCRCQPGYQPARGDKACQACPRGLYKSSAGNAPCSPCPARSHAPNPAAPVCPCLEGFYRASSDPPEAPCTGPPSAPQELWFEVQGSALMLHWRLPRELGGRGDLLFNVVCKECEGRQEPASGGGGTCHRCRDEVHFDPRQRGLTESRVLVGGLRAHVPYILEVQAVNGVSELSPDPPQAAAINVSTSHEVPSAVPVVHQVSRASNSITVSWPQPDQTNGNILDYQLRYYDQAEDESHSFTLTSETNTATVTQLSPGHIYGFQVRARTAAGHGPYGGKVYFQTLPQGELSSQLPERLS", "test": "Phage clone binding to immobilized EphB6 ectodomain Fc (phage ELISA)", "details": "phage clone displaying the peptide", "method": "Phage binding to Ni-NTA wells coated with 1 μg/ml Eph receptor Fe fusion proteins was quantified using an anti-phage antibody conjugated to horseradish peroxidase (M13 phage detection kit, Amersham Biosciences) with 2,2-azino-bis(3-ethylbenzothiazoline-6-sulfonic acid) as a substrate. The background that was subtracted from the measurements was determined without EphB4 Fc. […] In round 1 of panning, 2×10^11 plaque forming units (PFUs) of the phage library in 100 μl binding buffer were incubated for 1 hour at room temperature in the EphB receptor-coated wells."}, "EphB3": {"target": "T2, EphB3 (Homo sapiens, UniProt P54753)", "T2 construct": "Histidine-tagged EphB ectodomain Fc fusion proteins were incubated overnight", "T2 sequence (P54753 34-559 limits assumed)": "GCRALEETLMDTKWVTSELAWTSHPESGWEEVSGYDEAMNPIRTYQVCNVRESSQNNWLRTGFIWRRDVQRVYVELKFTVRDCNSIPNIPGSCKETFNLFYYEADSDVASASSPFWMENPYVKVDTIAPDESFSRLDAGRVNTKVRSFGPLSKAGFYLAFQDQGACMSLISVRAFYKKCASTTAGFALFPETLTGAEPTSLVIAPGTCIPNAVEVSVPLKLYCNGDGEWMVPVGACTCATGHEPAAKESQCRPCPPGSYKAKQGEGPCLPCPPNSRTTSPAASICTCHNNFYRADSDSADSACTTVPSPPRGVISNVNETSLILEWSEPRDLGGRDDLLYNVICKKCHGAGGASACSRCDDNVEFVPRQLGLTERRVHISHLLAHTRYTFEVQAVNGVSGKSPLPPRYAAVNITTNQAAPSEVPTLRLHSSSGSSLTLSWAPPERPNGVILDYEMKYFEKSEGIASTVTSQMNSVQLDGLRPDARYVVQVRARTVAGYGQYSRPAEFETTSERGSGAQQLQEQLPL", "test": "Phage clone binding to immobilized EphB3 ectodomain Fc (phage ELISA)", "details": "phage clone displaying the peptide", "experimental": "To identify EphB receptor-binding peptides, an M13 phage library (R&D Systems, Minneapolis, Minn.) displaying random 12 amino acid-long peptides was panned on the ectodomains of EphB1, EphB2, or EphB4 fused to human Fc and immobilized on nickel-coated wells through a carboxy-terminal hexahistidine tag (FIG. 1). Phage binding to Ni-NTA wells coated with 1 μg/ml Eph receptor Fe fusion proteins was quantified using an anti-phage antibody conjugated to horseradish peroxidase (M13 phage detection kit, Amersham Biosciences) with 2,2-azino-bis(3-ethylbenzothiazoline-6-sulfonic acid) as a substrate. The background that was subtracted from the measurements was determined without EphB4 Fc. Histidine-tagged EphB ectodomain Fc fusion proteins were incubated overnight at 4° C. in nickel-nitrilotriacetic acid (Ni-NTA)-coated ELISA wells at concentrations of 10 μg/ml in Tris-buffered saline (TBS) (150 mM NaCl, 50 mM Tris-HCl, pH 7.5), except for EphB2 and EphB4 rounds 3.2 and 4, which were with 1 μg/ml. […] Phage recovered after the first round of panning (1*) were not quantified to ensure that rare clones would be recovered.\nThe binding selectivity of the phage clones for the different mammalian EphB receptors was also determined (Table 1). […]"}}, "note": "No end group written: not given here."}
{"sequence": "EWLSPNLAPSVR [compound 1]", "values": [{"measurement": "EphB Receptor Specificity (% Binding) B6", "setting": "EphB6", "result": 0, "unit": "%"}, {"measurement": "EphB Receptor Specificity (% Binding) B3", "setting": "EphB3", "result": 1, "unit": "%"}]}
